# Data reported in US8017313B2, “Human G protein-coupled receptor and modulators thereof for the treatment of cardiovascular disorders” (Arena Pharmaceuticals, Inc., priority 2003, dated 2011).
# Tested on: RUP40 transcript in neonatal rat ventricular myocytes (NRVMs)
# Assay: RT-PCR of RUP40 transcript in neonatal rat ventricular myocytes
# Type: cell-based
# Conditions: 24 hours following addition to media, FIG. 4
# Experimental: Neonatal rat ventricular myocytes (NRVMs) were isolated and cultured as described previously [Adams, J W et al., J Biol Chem (1996) 271:1179-86]. Briefly, hearts were obtained from 1- to 2-day old Sprague-Dawley rat pups and digested with collagenase, and myocytes were purified by passage through a Percoll gradient. Cells were plated onto tissue culture dishes precoated with 1% gelatin and maintained overnight in 4:1 DMEM/medium-199 supplemented with 10% horse serum, 5% fetal calf serum, and antibiotics (100 units/ml penicillin and 100 μg/ml streptomycin. After 18 hours in plating medium, myocytes were washed with maintenance medium (DMEM/medium 199 plus antibiotics) to remove dead cells and debris and refreshed with maintenance medium for the duration of the experiment.
# Total RNA isolated from NRVMs and fibroblasts as described above was used as a template for generation of reverse transcribed DNA (RT-DNA) using the RT for PCR kit (Becton Dickinson, Franldin, N.J.) according to manufacturer's instructions. RUP40 expression was detected in RT-DNA samples by PCR. PCR conditions were: 96° C. or 2 min; 30 cycles of 96° C. for 30 sec, 55° C. for 30 sec, 72° C. for 2 min; 72° C. for 10 min.
# The amplified rat RUP40 DNA product is of size 403 base pairs. G3PDH amplifiers (Becton Dickinson, Franldin, N.J.) were added to each PCR reaction as an internal control.
row,Molecule,RUP40 transcript levels in the myocytes
1,"CNC[C@H](O)c1cccc(O)c1 [PE, phenylephrine]",remain elevated
2,prostaglandin F2 alpha [PG],remain elevated
3,"CCCCCCCCCCCCCC(=O)O[C@@H]1[C@@H](C)[C@@]2(O)[C@@H](C=C(CO)C[C@]3(O)C(=O)C(C)=C[C@@H]23)[C@@H]2C(C)(C)[C@]12OC(C)=O [PMA, phorbol 12-myristate 13-acetate]",drop dramatically
